The supplement of paper PMC11061612

Columns and labels:
Paclitaxel = compound: CC(=O)O[C@H]1C(=O)[C@@]2(C)[C@H]([C@H](OC(=O)c3ccccc3)[C@]3(O)C[C@H](OC(=O)[C@H](O)[C@@H](NC(=O)c4ccccc4)c4ccccc4)C(C)=C1C3(C)C)[C@]1(OC(C)=O)CO[C@@H]1C[C@@H]2O [Paclitaxel]; conditions: max 3 µM
How it was run: (§1)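 Cancer cell lines were dosed for 72 hours (final DMSO typically 0.2%) after 24 hours at 37°C and 5% CO2 in 1536-well plates containing 7.5 μl DMEM/F12 or RPMI with 10% FBS. Viability came from CellTiter-Glo 2.0 luminescence, scaled between blank-well and DMSO-well means, and dose responses were fitted to a two-parameter logistic curve with a non-linear mixed effects model. The single-agent IC50 was obtained from this fit.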

Crizotinib = compound: C[C@@H](Oc1cc(-c2cnn(C3CCNCC3)c2)cnc1N)c1c(Cl)ccc(F)c1Cl [Crizotinib]; conditions: max 10 µM
How it was run: as §1

AZD1390 = compound: CC(C)n1c(=O)n(C)c2cnc3cc(F)c(-c4ccc(OCCCN5CCCCC5)nc4)cc3c21 [AZD1390]; conditions: max 0.3 µM
How it was run: as §1

AZD2811 = compound: CCN(CCO)CCCOc1ccc2c(Nc3cc(CC(=O)Nc4cccc(F)c4)[nH]n3)ncnc2c1 [AZD2811]; conditions: max 1 µM
How it was run: as §1

AZD0156 = compound: CN(C)CCCOc1ccc(-c2ccc3ncc4c(c3c2)n(C2CCOCC2)c(=O)n4C)cn1 [AZD0156]; conditions: max 3 µM
How it was run: as §1

Selumetinib = compound: Cn1cnc2c(F)c(Nc3ccc(Br)cc3Cl)c(C(=O)NOCCO)cc21 [Selumetinib]; conditions: max 10 µM
How it was run: as §1

Prexasertib = compound: COc1cccc(OCCCN)c1-c1cc(Nc2cnc(C#N)cn2)n[nH]1 [Prexasertib]; conditions: max 1 µM
How it was run: as §1

Taselisib = compound: Cc1nc(-c2cn3c(n2)-c2ccc(-c4cnn(C(C)(C)C(N)=O)c4)cc2OCC3)n(C(C)C)n1 [Taselisib]; conditions: max 10 µM
How it was run: as §1

Venetoclax = compound: CC1(C)CCC(CN2CCN(c3ccc(C(=O)NS(=O)(=O)c4ccc(NCC5CCOCC5)c([N+](=O)[O-])c4)c(Oc4cnc5[nH]ccc5c4)c3)CC2)=C(c2ccc(Cl)cc2)C1 [Venetoclax]; conditions: max 1 µM
How it was run: as §1

AZD4320 = compound: CN(CC[C@H](CSC1=CC=CC=C1)NC2=C(C=C(C=C2)S(=O)(=O)NC(=O)C3=CC=C(C=C3)N4CCC(CC4)[C@H](C5=CC=CC=C5C6=CC=C(C=C6)Cl)O)S(=O)(=O)C(F)(F)F)CCO [AZD4320]; conditions: max 1 µM
How it was run: as §1

MK-2206 = compound: NC1(c2ccc(-c3nc4ccn5c(=O)[nH]nc5c4cc3-c3ccccc3)cc2)CCC1 [MK-2206]; conditions: max 10 µM
How it was run: as §1

Savolitinib = compound: C[C@@H](c1ccc2nccn2c1)n1nnc2ncc(-c3cnn(C)c3)nc21 [Savolitinib]; conditions: max 1 µM
How it was run: as §1

SG3199 = compound: CC1=CN2[C@@H](C1)C=NC3=CC(=C(C=C3C2=O)OC)OCCCCCOC4=C(C=C5C(=C4)N=C[C@@H]6CC(=CN6C5=O)C)OC [SG3199]; conditions: max 0.001 µM
How it was run: as §1

AZD8186 = compound: C[C@@H](Nc1cc(F)cc(F)c1)c1cc(C(=O)N(C)C)cc2c(=O)cc(N3CCOCC3)oc12 [AZD8186]; conditions: max 10 µM
How it was run: as §1

AZD5153 = compound: COc1nnc2ccc(N3CCC(c4ccc(OCCN5CCN(C)C(=O)[C@H]5C)cc4)CC3)nn12 [AZD5153]; conditions: max 1 µM
How it was run: as §1

AZD1775 = compound: C=CCn1c(=O)c2cnc(Nc3ccc(N4CCN(C)CC4)cc3)nc2n1-c1cccc(C(C)(C)O)n1 [AZD1775]; conditions: max 3 µM
How it was run: as §1

Lapatinib = compound: CS(=O)(=O)CCNCc1ccc(-c2ccc3ncnc(Nc4ccc(OCc5cccc(F)c5)c(Cl)c4)c3c2)o1 [Lapatinib]; conditions: max 10 µM
How it was run: as §1

Etoposide = compound: COc1cc([C@@H]2c3cc4c(cc3[C@@H](O[C@@H]3O[C@@H]5CO[C@@H](C)O[C@H]5[C@H](O)[C@H]3O)[C@H]3COC(=O)[C@H]23)OCO4)cc(OC)c1O [Etoposide]; conditions: max 10 µM
How it was run: as §1

[1] = compound: O=C(Nc1ccc2[nH]nc(-c3ccncc3)c2c1)[C@@H]1CCN(CC(=O)N2CCN(c3ccc(-c4ncccn4)cc3)CC2)C1; conditions: max 5 µM
How it was run: as §1

SN-38 = compound: CCc1c2c(nc3ccc(O)cc13)-c1cc3c(c(=O)n1C2)COC(=O)[C@]3(O)CC [SN-38]; conditions: max 0.3 µM
How it was run: as §1

Carboplatin = compound: C1CC(C1)(C(=O)[O-])C(=O)[O-].N.N.[Pt+2] [Carboplatin]; conditions: max 10 µM
How it was run: as §1

Trametinib = compound: CC(=O)Nc1cccc(-n2c(=O)n(C3CC3)c(=O)c3c(Nc4ccc(I)cc4F)n(C)c(=O)c(C)c32)c1 [Trametinib]; conditions: max 1 µM
How it was run: as §1

Doxorubicin = compound: COc1cccc2c1C(=O)c1c(O)c3c(c(O)c1C2=O)C[C@@](O)(C(=O)CO)C[C@@H]3O[C@H]1C[C@H](N)[C@H](O)[C@H](C)O1 [Doxorubicin]; conditions: max 1 µM
How it was run: as §1

Gemcitabine = compound: Nc1ccn([C@@H]2O[C@H](CO)[C@@H](O)C2(F)F)c(=O)n1 [Gemcitabine]; conditions: max 0.3 µM
How it was run: as §1

AZD5363 = compound: C1CN(CCC1(C(=O)N[C@@H](CCO)C2=CC=C(C=C2)Cl)N)C3=NC=NC4=C3C=CN4 [AZD5363]; conditions: max 10 µM
How it was run: as §1

5-Fluorouracil = compound: O=c1[nH]cc(F)c(=O)[nH]1 [5-Fluorouracil]; conditions: max 20 µM
How it was run: as §1

Dasatinib = compound: CC1=C(C(=CC=C1)Cl)NC(=O)C2=CN=C(S2)NC3=CC(=NC(=N3)C)N4CCN(CC4)CCO [Dasatinib]; conditions: max 2 µM
How it was run: as §1

SRA737 = compound: N#Cc1cnc(Nc2cc(NC[C@H]3CNCCO3)c(C(F)(F)F)cn2)cn1 [SRA737]; conditions: max 10 µM
How it was run: as §1

Palbociclib = compound: CC(=O)c1c(C)c2cnc(Nc3ccc(N4CCNCC4)cn3)nc2n(C2CCCC2)c1=O [Palbociclib]; conditions: max 10 µM
How it was run: as §1

Gefitinib = compound: COc1cc2ncnc(Nc3ccc(F)c(Cl)c3)c2cc1OCCCN1CCOCC1 [Gefitinib]; conditions: max 10 µM
How it was run: as §1

AZD5991 = compound: Cc1c2c(nn1C)CSCc1cc(n(C)n1)CSc1cc(c3ccccc3c1)OCCCc1c(C(=O)O)n(C)c3c-2c(Cl)ccc13 [AZD5991]; conditions: max 1 µM
How it was run: as §1

Olaparib = compound: O=C(c1cc(Cc2n[nH]c(=O)c3ccccc23)ccc1F)N1CCN(C(=O)C2CC2)CC1 [Olaparib]; conditions: max 10 µM
How it was run: as §1

Alisertib = compound: COc1cc(Nc2ncc3c(n2)-c2ccc(Cl)cc2C(c2c(F)cccc2OC)=NC3)ccc1C(=O)O [Alisertib]; conditions: max 10 µM
How it was run: as §1

AZD6738 = compound: C[C@@H]1COCCN1C2=NC(=NC(=C2)C3(CC3)[S@](=N)(=O)C)C4=C5C=CNC5=NC=C4 [AZD6738]; conditions: max 10 µM
How it was run: as §1

AZD7648 = compound: Cc1cc2ncnn2cc1Nc1ncc2c(n1)n(C1CCOCC1)c(=O)n2C [AZD7648]; conditions: max 10 µM
How it was run: as §1

Cell Line | IC50, cell viability 72 h (Paclitaxel) [nM] | IC50, cell viability 72 h (Crizotinib) [nM] | IC50, cell viability 72 h (AZD1390) [nM] | IC50, cell viability 72 h (AZD2811) [nM] | IC50, cell viability 72 h (AZD0156) [nM] | IC50, cell viability 72 h (Selumetinib) [nM] | IC50, cell viability 72 h (Prexasertib) [nM] | IC50, cell viability 72 h (Taselisib) [nM] | IC50, cell viability 72 h (Venetoclax) [nM] | IC50, cell viability 72 h (AZD4320) [nM] | IC50, cell viability 72 h (MK-2206) [nM] | IC50, cell viability 72 h (Savolitinib) [nM] | IC50, cell viability 72 h (SG3199) [nM] | IC50, cell viability 72 h (AZD8186) [nM] | IC50, cell viability 72 h (AZD5153) [nM] | IC50, cell viability 72 h (AZD1775) [nM] | IC50, cell viability 72 h (Lapatinib) [nM] | IC50, cell viability 72 h (Etoposide) [nM] | IC50, cell viability 72 h [1] [nM] | IC50, cell viability 72 h (SN-38) [nM] | IC50, cell viability 72 h (Carboplatin) [nM] | IC50, cell viability 72 h (Trametinib) [nM] | IC50, cell viability 72 h (Doxorubicin) [nM] | IC50, cell viability 72 h (Gemcitabine) [nM] | IC50, cell viability 72 h (AZD5363) [nM] | IC50, cell viability 72 h (5-Fluorouracil) [nM] | IC50, cell viability 72 h (Dasatinib) [nM] | IC50, cell viability 72 h (SRA737) [nM] | IC50, cell viability 72 h (Palbociclib) [nM] | IC50, cell viability 72 h (Gefitinib) [nM] | IC50, cell viability 72 h (AZD5991) [nM] | IC50, cell viability 72 h (Olaparib) [nM] | IC50, cell viability 72 h (Alisertib) [nM] | IC50, cell viability 72 h (AZD6738) [nM] | IC50, cell viability 72 h (AZD7648) [nM]
NCCIT (Other Solid Carcinomas) | 11.8 | > 10000 | > 300 | > 1000 | > 3000 | > 10000 | 70.3 | 1620 | > 1000 | > 1000 | 6670 | > 1000 | > 1 | > 10000 | 33.6 | 561 | > 10000 | > 10000 | > 5000 | > 300 | > 10000 | > 1000 | > 1000 | > 300 | 8120 | > 20000 | > 2000 | > 10000 | > 10000 | > 10000 | 891 | > 10000 | > 10000 | 8410 | > 10000
T-T (Esophageal Squamous Cell Carcinoma) | 29.3 | > 10000 | > 300 | > 1000 | > 3000 | > 10000 | 350 | 2980 | > 1000 | > 1000 | > 10000 | > 1000 | > 1 | > 10000 | > 1000 | 1770 | > 10000 | > 10000 | > 5000 | 115 | > 10000 | > 1000 | > 1000 | > 300 | > 10000 | > 20000 | > 2000 | > 10000 | > 10000 | > 10000 | 341 | > 10000 | > 10000 | > 10000 | > 10000
